# Test system: MM1.S cells, merged BRD4/JQ1 genomic regions
# Assay: Specificity analysis: overlap between JQ1 Chem-Seq and BRD4 ChIP-Seq data
# Type: binding, human
# Procedure: Chemical crosslinking was terminated by addition of TRIS buffer, pH 7.5, to a final concentration of 300 mM TRIS. Cells were harvested using a silicon scraper, centrifuged and the derived pellets washed three times with PBS. Cell nuclei were prepared as follows: cells were lysed in 50 mM HEPES, pH 7.5, 140 mM NaCl, 1 mM EDTA, 10% Glycerol, 0.5% NP-40, 0.25% Triton X-100 plus protease inhibitor cocktail ‘complete’ (Roche), and cell nuclei were washed once with 10 mM Tris-HCL, pH 8.0, 200 mM NaCl, 1 mM EDTA, 0.5 mM EGTA and protease inhibitors. […] Finally, purified DNA fragments were massively parallel sequenced and the sequencing data analyzed as described (33). […]
# All ChIP-Seq and Chem-seq datasets were aligned using Bowtie (version 0.12.2) (35) to build version NCBI36/HG18 of the human genome. […] To obtain the normalized read density of ChIP-Seq datasets in any region, ChIP-Seq reads aligning to the region were extended automatically by MACS and the density of reads per basepair (bp) was calculated. The density of reads in each region was normalized to the total number of million mapped reads producing read density in units of reads per million mapped reads per by (rpm/bp).
# Chem-Seq and ChIP-Seq data was analyzed to identify genomic regions with substantial JQ 1 Chem-Seq signal but no significant BRD4 ChIP-Seq signal, reasoning these sites might represent off-target interactions of JQ1. […]
smiles,measurement,setting,value
Cc1sc2c(c1C)C(c1ccc(Cl)cc1)=N[C@@H](CC(=O)OC(C)(C)C)c1nnc(C)n1-2 [JQ1],Off-target interaction (JQ1 Chem-Seq signal at regions of the genome without BRD4),"MM1.S cells, GLM differential binding analysis",no identifiable off-target interaction
same,Genomic regions with significant differences in JQ1 Chem-Seq and BRD4 ChIP-Seq signals,"out of 25,060 merged regions, FDR<=0.25, MM1.S cells",10 regions

# From patent publication US20150167062A1, “Genome-wide Method of Assessing Interactions Between Chemical Entities And Their Target Molecules” (Whitehead Institute for Biomedical Research, priority 2012, published 2015)
